# Results reported in patent US12716890B2, “Macro tissue explant, methods and uses therefor” (Massachusetts Institute of Technology, priority 2017, dated 2026).
# Where two headings read alike, the source gives them in different places. Numbered stars: 1 amine (or outer) side, 2 acyl side, 3 side chain; on linkers, the order of the positions; unused ones are H or OH. Bridge positions count the residues as written; N and C are the ends. Peptide text beside a SMILES is read from it. X1 = O=C(CCC[*:2])[*:1]
# Tests used:
# [1] = tested on: GLP-1 (7-36); test: GLP-1 stimulation of intestinal tissue explant, ELISA of GLP-1 (7-36); assay type: cell-based, pigs; settings: varying doses for 24 hours
# Description: As determined in Example 1, the intestinal tissue explant comprises endocrine cells, determined by the expression of […] and Glucagon-like peptide-1 (GLP-1). Therefore, the ability of the intestinal tissue explant to respond to known GLP-1 stimulants was investigated. Specifically, acetylcholine, LiCl, and glucose were added to the intestinal tissue explant at varying doses for 24 hours, then cells within the apical side of the intestinal epithelium were isolated. The concentration of active cleaved peptide of GLP-1 (GLP-1 (7-36)) of these cell lysates was determined by ELISA analysis. […] The stimulation of GLP-1 secretion by acetylcholine, LiCl and glucose, which act through different pathways, indicated these pathways were intact in the intestinal tissue explant. The Acetylcholine and LiCl act as non-nutrient stimulators of GLP-1 that are reported to simulate GLP-1 activity via neuronal regulation. Glucose triggers GLP-1 activity via nutrient-based pathways.
# [2] = tested on: intestinal tissue explant; assay type: in vitro ADME, pigs
# Description: To assemble the intestinal tissue explant system, freshly isolated intestinal tissue from the jejunum was prepared according to the described tissue dissection procedure and mounted on the manufactured interface design with a generic 96 well plate as a receiver plate (Corning® 96 well plates, clear bottom, Corning) or a UV transparent plate (Corning® 96-well UV Plates, Corning). The jejunum was identified as the region of the small intestine approximately 50 cm after the pylorus. The difference between the jejunum and ileum was determined based on anatomical location, the structural differences of the tissue, differences in blood supply, and fat deposition as well as the presence of lymphoid tissue. For the system in 384-well format, a 384 microplate with glass bottom (Greiner Sensoplate™ glass bottom multiwall plates, Sigma) were used. The tissue was then cultured in this system according to the described cultivation protocol for specific ex vivo cultivation time periods. Intestinal perfusion experiments using the system were conducted only once after 24 hours of ex vivo cultivation unless otherwise noted.
# For perfusion experiments the following set up was used: Formulation samples were prepared using a liquid handling station (Evo 150 liquid handling deck, Tecan), an automated dispenser (EL406 Combination Washer Dispenser, BioTek Instruments) was used to fill receiver 96 well plates, a microplate reader (Infinite® M1000 PRO, Tecan) was then used for spectrophotometric analysis. Specifically, formulation samples were prepared following a protocol to mix the pre-pared excipient plate 10 times, pipette the appropriate amount of excipient and dispense into a 96-well plate with the appropriate amount of compound already it in. The excipient/compound formulations were then mixed 60 times and then the appropriate amount was pipetted and dispensed onto the tissue explant. All experiments, including sample incubation, were performed at room temperature. […]
# [3] = tested on: gastrointestinal tissue explants derived from either the esophagus, stomach or small intestine
# Description: To determine responsiveness of the intestinal tissue explant to toxins, a resazurin-based viability analysis was conducted in various segments of the gastrointestinal tract after exposure to chemicals for a 24 hour time period. Resazurin is an oxidation-reduction indicator and established viability assay for mammalian cells. […] Tissue was incubated in multiwell plates containing media in the receiver chamber and various chemicals at different concentrations in PBS in the donor chamber. After 24 hours viability was measured by resazurin-based viability analysis.
# [4] = Pharmacokinetic validation in vivo, formulation delivered to duodenum, oxytocin serum ELISA; settings: female, Yorkshire, pig, po, pigs, formulation delivered directly to the duodenum, read-out: bioavailability of oxytocin (absolute / average oral)
# Description: All animal procedures were conducted in accordance with protocols approved by the Massachusetts Institute of Technology Committee on Animal Care. For tissue experiments, fresh tissue was obtained from local abattoirs within 20 minutes of euthanization.
# Pharmacokinetic validation was performed in vivo. Female Yorkshire pigs between 45 and 50 kg in weight were used. Before every experiment, the animals were fasted overnight and on the day of the procedure, the morning feed was held. The animals were sedated with an intramuscular injection of Telazol (tileramine/zolazepam) 5 mg/kg, xylazine 2 mg/kg and atropine 0.04 mg/kg. The duodenum was accessed endoscopically and the formulation directly delivered to the duodenum. Serial blood sampling from the peripheral veins was performed for quantification of oxytocin. For oxytocin serum quantification, an Oxytocin ELISA kit (Cat. no. ab133050, Abcam) was used according to the manufacturer's protocol. […] To investigate the mechanism of absorption enhancement and to analyze potential local effects of the formulation on the small intestine histologically, a surgical procedure coupled with custom-made devices was developed, that enabled controlled exposure of the formulation on a defined area of the intestinal tissue. E-cadherin stained sections of biopsy samples were used to analyze the disruption of cell-cell adhesions.
# [5] = molecular target: T1, MDR-1 (Sus scrofa, UniProt K7GMM7); test: Perfusion of substrate through siRNA-transfected intestinal tissue explant; assay type: in vitro ADME, pigs
# T1 construct: from tissue; host or cells: pig small intestine explant, cultured ex vivo
# T1 sequence (K7GMM7 1-1248): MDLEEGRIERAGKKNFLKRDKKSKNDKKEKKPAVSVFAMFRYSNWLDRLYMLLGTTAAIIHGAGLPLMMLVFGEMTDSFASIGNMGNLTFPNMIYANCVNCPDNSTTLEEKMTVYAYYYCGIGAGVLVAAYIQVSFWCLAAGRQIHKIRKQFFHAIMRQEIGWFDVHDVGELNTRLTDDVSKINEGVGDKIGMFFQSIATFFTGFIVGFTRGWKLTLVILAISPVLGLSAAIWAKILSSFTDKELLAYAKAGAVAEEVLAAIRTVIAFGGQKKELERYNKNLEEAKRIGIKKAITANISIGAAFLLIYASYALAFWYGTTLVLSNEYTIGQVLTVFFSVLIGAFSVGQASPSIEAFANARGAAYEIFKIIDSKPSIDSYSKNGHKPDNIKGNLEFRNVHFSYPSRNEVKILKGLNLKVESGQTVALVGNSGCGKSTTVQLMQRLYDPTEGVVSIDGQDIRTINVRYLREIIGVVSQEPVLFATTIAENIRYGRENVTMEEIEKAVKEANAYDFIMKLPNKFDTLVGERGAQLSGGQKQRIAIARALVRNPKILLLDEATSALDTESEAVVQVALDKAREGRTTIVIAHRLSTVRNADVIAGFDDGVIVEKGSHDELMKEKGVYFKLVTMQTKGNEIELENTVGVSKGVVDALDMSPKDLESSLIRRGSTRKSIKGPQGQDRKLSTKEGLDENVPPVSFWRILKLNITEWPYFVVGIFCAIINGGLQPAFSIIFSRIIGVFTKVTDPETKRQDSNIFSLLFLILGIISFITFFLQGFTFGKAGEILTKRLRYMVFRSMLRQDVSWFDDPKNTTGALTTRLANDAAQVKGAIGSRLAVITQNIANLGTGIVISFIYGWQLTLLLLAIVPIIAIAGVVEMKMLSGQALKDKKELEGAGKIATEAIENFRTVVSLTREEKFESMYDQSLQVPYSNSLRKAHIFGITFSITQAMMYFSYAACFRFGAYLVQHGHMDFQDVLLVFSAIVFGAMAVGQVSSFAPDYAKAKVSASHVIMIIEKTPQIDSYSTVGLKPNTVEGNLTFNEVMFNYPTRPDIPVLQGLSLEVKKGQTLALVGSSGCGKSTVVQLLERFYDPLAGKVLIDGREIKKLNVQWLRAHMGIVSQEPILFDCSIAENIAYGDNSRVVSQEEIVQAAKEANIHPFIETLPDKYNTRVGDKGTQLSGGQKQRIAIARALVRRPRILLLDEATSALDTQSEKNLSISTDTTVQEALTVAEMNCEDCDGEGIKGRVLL
# Description: Specifically, siRNA was delivered to tissue explants using ultrasound by applying 5 second intervals for 1 minute for 40 kHz generated using a separate ultrasound generator (Sonics and Materials, Inc.) and a custom made 96 tip probe. The following siRNAs at concentrations of 1 μm in deionized water were used: Silencer® Select Pre-Designed siRNA (siRNA ID: s3846, Gene Symbol: CYP3A4), Silencer® Select Pre-Designed siRNA (siRNA ID: s10419, Gene Symbol: ABCB1), Silencer® Select Negative Control No. 1 siRNA.
compound,measurement,setting,value
[Cl-].[Li+] [LiCl],concentration of GLP-1 (7-36) in cell lysates,[1],increased concentration so of GLP-1 (7-36) in a dose-dependent manner
CC[C@H](C)[C@@H]1NC(=O)[C@H](Cc2ccc(OC)cc2)NC(=O)CCCSC[C@@H](C(=O)N2CCC[C@H]2C(=O)N[C@@H](CC(C)C)C(=O)NCC(N)=O)NC(=O)[C@H](CC(N)=O)NC(=O)[C@H](CCC(N)=O)NC1=O [carbetocin] (Y(Me)IQNCPLG-NH2; linker N-5 via X1),"intestinal absorption/perfusion of model drug formulated with polyethyleneimine (800 Da, end-capped)",[2],limited increase in intestinal perfusion
CCO [ethanol],tissue viability,[3],dose-dependent chemically induced decrease in tissue viability
C=O [formalin],tissue viability,"[3]; 24 hours exposure, different concentrations in PBS, esophagus, stomach or small intestine explants",dose-dependent chemically induced decrease in tissue viability
CO [methanol],tissue viability,[3],dose-dependent chemically induced decrease in tissue viability
CC[C@H](C)[C@@H]1NC(=O)[C@H](Cc2ccc(O)cc2)NC(=O)[C@@H](N)CSSC[C@@H](C(=O)N2CCC[C@H]2C(=O)N[C@@H](CC(C)C)C(=O)NCC(N)=O)NC(=O)[C@H](CC(N)=O)NC(=O)[C@H](CCC(N)=O)NC1=O [oxytocin],bioavailability,[4],0.64%
CNC(=C[N+](=O)[O-])NCCSCc1ccc(CN(C)C)o1 [ranitidine],perfusion after knock-down of MDR-1,[5],significant change of perfusion
Alexa488-insulin: human insulin (recombinant) labeled with Alexa Fluor 488 NHS Ester,"intestinal absorption/perfusion of model drug formulated with polyethyleneimine (800 Da, end-capped)",[2],increase the intestinal absorption to various degrees
"Polyethyleneimine [Polyethyleneimine (800 Da, end-capped)]",intestinal perfusion of oxytocin formulated with excipient,[2],increased the intestinal perfusion of oxytocin several fold
